Results from PMC9709406 (Frontiers in Pharmacology, 2022).
“And” between values parts separate entries of the source, which are not always exact repeats. Equal entries are not always repeated. Where two headings read alike, the source gives them in different places.

Experiments:
[1] = test system: KYSE70 cells; assay: MTT assay, KYSE70; assay type: cell-based, human; conditions: for IC50: Homo sapiens, KYSE-70, MTT, 48 h, KYSE70, n = 5
From the text: (§1) The human cancer cells (H1650, H1975, KYSE70, KYSE410 and KYSE450) were purchased from the Type Culture Collection of the Chinese Academy of Sciences (Shanghai, China). The human immortalized normal esophageal epithelial cell line SHEE was donated by Dr. Enmin Li from the Laboratory of Tumor Pathology (Shantou University Medical College, Shantou, Guangdong, China). Drug-resistant cells (H1650TR, H1975OR, KYSE70TR, KYSE410TR and KYSE450TR) were induced by China-US (Henan) Hormel Cancer Institute. The cellswere cultured in RPMI-1640 complete growth medium containing 100 U/mL penicillin-streptomycin and 10% FBS. Based on the above medium formula, 100 nm/L paclitaxel was added in taxol-resistant cells, 100 nm/L gefitinib was added in gefitinib-resistant cells. The cells were incubated at 37 °C in an atmosphere containing 5% of CO2. The compounds were dissolved in DMSO to make a 50 mM stock solution and were diluted to the concentration of working solutions with complete growth medium before administration.
(§2) Cells were seeded in 96-well plates with 2,200–2,500 cells/well in100 μL. One day after seeding, test compounds with the concentration between 0 and 50 μM were added with 0.1% DMSO as control. Five multiple wells for each concentration. After 48 h, MTT was added and incubated in the plate for 1–4 h in the incubator. The absorbance at 490 nm was measured using a microplate reader (Thermo).

[2] = molecular target: T1, EGFR (Homo sapiens, UniProt P00533); assay: EGFR kinase assay (ELISA); assay type: biochemical; conditions: 25°C
T1 construct: purchased Active MOTIF
T1 sequence (P00533 25-1210): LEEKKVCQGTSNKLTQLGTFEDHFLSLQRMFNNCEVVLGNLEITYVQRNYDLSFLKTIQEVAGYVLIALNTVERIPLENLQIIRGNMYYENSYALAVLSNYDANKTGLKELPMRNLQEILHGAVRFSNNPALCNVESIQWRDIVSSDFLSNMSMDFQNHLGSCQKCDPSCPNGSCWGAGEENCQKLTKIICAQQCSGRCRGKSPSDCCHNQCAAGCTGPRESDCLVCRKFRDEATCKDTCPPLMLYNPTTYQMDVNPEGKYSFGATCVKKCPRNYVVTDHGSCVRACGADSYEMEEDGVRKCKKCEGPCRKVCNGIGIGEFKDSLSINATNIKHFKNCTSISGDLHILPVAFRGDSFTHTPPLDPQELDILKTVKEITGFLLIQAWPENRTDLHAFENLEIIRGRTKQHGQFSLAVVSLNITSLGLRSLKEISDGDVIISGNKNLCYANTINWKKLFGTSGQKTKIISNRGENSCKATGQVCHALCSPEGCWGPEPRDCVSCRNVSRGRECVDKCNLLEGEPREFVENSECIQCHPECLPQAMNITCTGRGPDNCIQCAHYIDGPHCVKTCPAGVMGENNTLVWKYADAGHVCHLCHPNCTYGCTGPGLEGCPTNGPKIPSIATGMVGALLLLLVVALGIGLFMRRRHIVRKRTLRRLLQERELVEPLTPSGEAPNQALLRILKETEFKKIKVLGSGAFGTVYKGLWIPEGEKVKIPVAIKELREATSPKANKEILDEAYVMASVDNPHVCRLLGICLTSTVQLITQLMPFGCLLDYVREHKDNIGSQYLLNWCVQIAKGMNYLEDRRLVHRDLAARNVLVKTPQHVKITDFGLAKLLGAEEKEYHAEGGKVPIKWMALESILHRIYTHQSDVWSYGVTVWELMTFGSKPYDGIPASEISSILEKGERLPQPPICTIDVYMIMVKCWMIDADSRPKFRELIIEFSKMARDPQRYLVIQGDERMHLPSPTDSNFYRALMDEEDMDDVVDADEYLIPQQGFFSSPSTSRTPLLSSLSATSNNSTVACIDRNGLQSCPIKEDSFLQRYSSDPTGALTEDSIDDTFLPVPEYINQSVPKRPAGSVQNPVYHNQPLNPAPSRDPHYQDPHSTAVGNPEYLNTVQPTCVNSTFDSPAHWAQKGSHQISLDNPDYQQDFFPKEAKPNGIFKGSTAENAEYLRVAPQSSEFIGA
Experimental: Kinase inhibitory activities of the compounds were evaluated using the Protein Tyrosine Kinase Assay Kit (SignalChem (British Columbia, Canada)). The kinase enzyme of EGFR was purchased from Active MOTIF. The ELISA experiments were carried out according the instructions of the kit. Active kinases were incubated with indicated compounds in 1 × reaction buffer containing 20 μM substrate at 25°C for 1 h and 2 h, respectively. The absorbance was read with a multimode plate reader (PerkinElmer, United States) at 450 nm.

[3] = test system: H1975 cells; assay: MTT assay for cell proliferation and cytotoxicity, H1975; assay type: cell-based, human; conditions: Homo sapiens, NCI-H1975, 48 h, MTT, 48 h, H1975, n = 5; read-out: IC50 48 h H1975
From the text: as §1
Cells were seeded in 96-well plates with 2,200–2,500 cells/well in100 μL. One day after seeding, test compounds with the concentration between 0 and 50 μM were added with 0.1% DMSO as control. Five multiple wells for each concentration. […] The absorbance at 490 nm was measured using a microplate reader (Thermo).

[4] = test system: H1650 cells; assay: MTT assay for cell proliferation and cytotoxicity, H1650; assay type: cell-based; conditions: Homo sapiens, NCI-H1650, 48 h, H1650, n = 5
From the text: as §1, §2

[5] = test system: KYSE450 cells; assay: MTT assay, KYSE450; assay type: cell-based, human; conditions: for IC50: Homo sapiens, KYSE-450, MTT, 48 h, KYSE450, n = 5, read-out: IC50 48 h KYSE450; for absorbance 490 nm, single well / mean absorbance 490 nm (row G) / mean absorbance 490 nm minus background (row H): KYSE450
From the text: as §1, §2

[6] = test system: KYSE410 cells; assay: MTT assay, KYSE410; assay type: cell-based, human; conditions: for IC50: Homo sapiens, KYSE-410, MTT, 48 h, KYSE410, n = 5, read-out: IC50 48 h KYSE410
From the text: as §1, §2

[7] = test system: SHEE cells; assay: MTT assay, normal esophageal epithelial cell line SHEE; assay type: cell-based; conditions: Homo sapiens, 48 h, n = 5
From the text: as §1, §2

[8] = incubation 1 h, read-out: IC50 EGFR 1 h
[9] = incubation 2 h, read-out: IC50 EGFR 2 h
[10] = concentration 12.5 (unit not given)
[11] = concentration 25 (unit not given)
[12] = concentration 50 (unit not given)
[13] = concentration 100 (unit not given)

SMILES	IC50 [1]	blank-corrected absorbance 490 nm relative to control (fraction) ([1]; KYSE70, concentration 12.5)	inhibition (1 minus fraction of control) ([1]; KYSE70, concentration 12.5)	blank-corrected absorbance 490 nm relative to control (fraction) ([1]; KYSE70, concentration 25)	inhibition (1 minus fraction of control) ([1]; KYSE70, concentration 25)	blank-corrected absorbance 490 nm relative to control (fraction) ([1]; KYSE70, concentration 50)	inhibition (1 minus fraction of control) ([1]; KYSE70, concentration 50)	blank-corrected absorbance 490 nm relative to control (fraction) ([1]; KYSE70, concentration 100)	inhibition (1 minus fraction of control) ([1]; KYSE70, concentration 100)	IC50 [2, 8]	IC50 [2, 9]	IC50 [3]	IC50 [4]	IC50 [5]	IC50 [6]	blank-corrected absorbance 490 nm relative to control (fraction) ([6]; KYSE410, concentration 12.5)	inhibition (1 minus fraction of control) ([6]; KYSE410, concentration 12.5)	blank-corrected absorbance 490 nm relative to control (fraction) ([6]; KYSE410, concentration 25)	inhibition (1 minus fraction of control) ([6]; KYSE410, concentration 25)	blank-corrected absorbance 490 nm relative to control (fraction) ([6]; KYSE410, concentration 50)	other results
Clc1ccc(-n2cc(-c3cccc(Nc4ncnc5cc6c(cc45)OCCOCCOCCO6)c3)nn2)cc1 [compound 3b]	8.85 ± 0.67 µM	0.2939	0.7061	0.2786	0.7214	0.1882	0.8118	0.1691	0.8309	3.26 µM	71.7 µM	> 50 µM	7.81 ± 0.46 µM	11.6 ± 1.02 µM	10.7 ± 0.86 µM	0.4136	0.5864	0.4139	0.5861	0.3164	inhibition (1 minus fraction of control) ([6]; KYSE410, concentration 50): 0.6836; blank-corrected absorbance 490 nm relative to control (fraction) ([6]; KYSE410, concentration 100): 0.1744; inhibition (1 minus fraction of control) ([6]; KYSE410, concentration 100): 0.8256; melting point: 132 to 135 °C; IC50 [7]: 6.03 ± 0.48 µM
COc1ccccc1-n1cc(-c2cccc(Nc3ncnc4cc5c(cc34)OCCOCCOCCO5)c2)nn1 [compound 3d]	7.35 ± 0.7 µM	0.1496	0.8504	0.05438	0.9456	0.05391	0.9461	0.08017	0.9198	5.14 µM	26 µM	19.4 ± 1.21 µM	10.8 ± 0.89 µM	13.5 ± 1.21 µM	8.67 ± 0.71 µM	0.2787	0.7213	-0.00175	1.002	0.004317	absorbance 490 nm, single well [5, 10]: 0.4487 and 0.4214 and 0.4264 and 0.4518; mean absorbance 490 nm (row G) [5, 10]: 0.4371; mean absorbance 490 nm minus background (row H) [5, 10]: 0.3824; absorbance 490 nm, single well [5, 11]: 0.0614 and 0.062 and 0.0618; mean absorbance 490 nm (row G) [5, 11]: 0.06165; mean absorbance 490 nm minus background (row H) [5, 11]: 0.00697; absorbance 490 nm, single well [5, 12]: 0.0565 and 0.0602 and 0.0592 and 0.0604; mean absorbance 490 nm (row G) [5, 12]: 0.05908; mean absorbance 490 nm minus background (row H) [5, 12]: 0.004395; absorbance 490 nm, single well [5, 13]: 0.0606 and 0.0657 and 0.0613 and 0.0623; mean absorbance 490 nm (row G) [5, 13]: 0.06248; mean absorbance 490 nm minus background (row H) [5, 13]: 0.007795; inhibition (1 minus fraction of control) ([6]; KYSE410, concentration 50): 0.9957; blank-corrected absorbance 490 nm relative to control (fraction) ([6]; KYSE410, concentration 100): 0.02345; inhibition (1 minus fraction of control) ([6]; KYSE410, concentration 100): 0.9766; melting point: 121 to 124 °C; IC50 [7]: 7.2 ± 0.71 µM
Clc1ccccc1-n1cc(-c2cccc(Nc3ncnc4cc5c(cc34)OCCOCCOCCO5)c2)nn1 [compound 3e]	7.75 ± 0.68 µM	0.1936	0.8064	0.0586	0.9414	0.07267	0.9273	0.08298	0.917	1.29 µM	4.41 µM	13.1 ± 1.02 µM	5.61 ± 0.3 µM	21.8 ± 1.47 µM	11.7 ± 1.01 µM	0.4649	0.5351	0.2124	0.7876	0.02952	absorbance 490 nm, single well [5, 10]: 0.5603 and 0.5422 and 0.5648 and 0.5469; mean absorbance 490 nm (row G) [5, 10]: 0.5535; mean absorbance 490 nm minus background (row H) [5, 10]: 0.4989; absorbance 490 nm, single well [5, 11]: 0.3988 and 0.3524 and 0.3487 and 0.3334; mean absorbance 490 nm (row G) [5, 11]: 0.3583; mean absorbance 490 nm minus background (row H) [5, 11]: 0.3036; absorbance 490 nm, single well [5, 12]: 0.0685 and 0.0639 and 0.0619 and 0.065 and 0.0672; mean absorbance 490 nm (row G) [5, 12]: 0.0653; mean absorbance 490 nm minus background (row H) [5, 12]: 0.01062; absorbance 490 nm, single well [5, 13]: 0.0642 and 0.0659 and 0.0644 and 0.0663; mean absorbance 490 nm (row G) [5, 13]: 0.0652; mean absorbance 490 nm minus background (row H) [5, 13]: 0.01052; inhibition (1 minus fraction of control) ([6]; KYSE410, concentration 50): 0.9705; blank-corrected absorbance 490 nm relative to control (fraction) ([6]; KYSE410, concentration 100): 0.05985; inhibition (1 minus fraction of control) ([6]; KYSE410, concentration 100): 0.9402; melting point: 125 to 127 °C; IC50 [7]: 10.3 ± 0.84 µM
